# Molecular target: T1, hD2LR (human dopamine D2 receptor, long splice variant) (Homo sapiens, UniProt P14416)
# T1 construct: gene DRD2; full-length long isoform, stably expressed in Flp-In HEK293 cells (G protein BRET assay); C351I G alpha subunits co-transfected as sensors; hD2LR-NLuc fusion with GRK2-Venus in the GRK2 recruitment assay (SCH23390 row)
# Assay: Schild analysis, BRET GRK2 recruitment (hD2LR-NLuc / GRK2-Venus)
# Assay type: cell-based
# Conditions: read-out: pA2 (converted)
row,Compound,Kb [nM]
1,CN1CCc2cc(Cl)c(O)cc2[C@@H](c2ccccc2)C1 [SCH23390],525

# Molecular target: T1, hD2LR (human dopamine D2 receptor, long splice variant)
# Assay: BRET G protein (GαoA) activation, Gβγ-Venus / masGRK3ct-NLuc release
# Assay type: cell-based
# Conditions: not given
row,Compound,EC50 [nM]
1,CC(C)C[C@H]1C(=O)N2CCC[C@H]2[C@]2(O)O[C@](NC(=O)[C@@H]3C=C4c5cccc6[nH]c(Br)c(c56)C[C@H]4N(C)C3)(C(C)C)C(=O)N12 [Bromocriptine],14.5
2,C=CCN1C[C@H](C(=O)N(CCCN(C)C)C(=O)NCC)C[C@@H]2c3cccc4[nH]cc(c34)C[C@H]21 [Cabergoline],1.58
3,Oc1c(CN2CCN(c3ccccn3)CC2)cc(Cl)c2cccnc12 [MLS1547],209
4,CCCN(CCC)CCc1cccc2c1CC(=O)N2 [Ropinirole],2.82
5,CCN(CC)C(=O)N[C@H]1C[C@@H]2c3cccc4[nH]cc(c34)C[C@H]2N(C)C1 [Terguride],4.37
6,Clc1cccc(C2CCN(CCCOc3ccc4scnc4c3)CC2)c1Cl [UNC9994],282
